{"source": "patent US20140073611A1", "about": "“METHODS FOR DRUG SCREEN USING ZEBRAFISH MODEL AND THE COMPOUNDS SCREENED THEREFROM” (National Taiwan University, priority 2012, published 2014)", "key": {"[1]": {"system": "lumican knockdown zebrafish (zLum-MO)", "experiment": "Drug screen in lumican (zLum-MO) knockdown zebrafish: big eye ratio / scleral coat enlargement", "format": "in vivo", "conditions": "for outcome of the screen of about 30 drugs: lumican knockdown zebrafish model; for % of scleral enlargement in experimental group: zLum-MO knockdown model, vs. 30% of scleral enlargement in control group", "description": "The term “big eye” denotes that an eye with a value of the axial length of the retinal pigmented epithelium layer divided by the axial length of the scleral coat is less than 0.7.\nAccording to the disclosure, the knockdown zebrafish are exposed to a test compound at the optic cup formation stage thereof. Generally, at around 24 hours after fertilization, the optic cup of zebrafish is formed. The knockdown zebrafish can be exposed to the test compound at the optic cup formation stage. After contacting the knockdown zebrafish with the test compound, the test compound, if it is a potential candidate, may start to activate the expression of lumican and collagen fibrillogenesis, thereby decreasing the enlargement of eyeball and treating and/or preventing myopia and/or keratoconus disease. Retina lenses are established around 48 hours after fertilization, and the sclera and cornea are established around 72 hours after fertilization. At sclera and cornea establishment stage, the zebrafish are collected.\n(§1) Big eye in a zebrafish is an indicator of myopia. As used herein, a “big eye” refers to an eye with an enlarged axial length of eyeball and denotes the value of the axial length of the retinal pigmented epithelium layer divided by the axial length of the scleral coat less than 0.7. The axial length of a retinal pigmented epithelium layer and the axial length of a scleral coat can be measured by any method known in the art—for example, dissecting microscopy.\nThe test compound can be identified as a candidate compound affecting the expression of lumican and/or collagen fibrillogenesis and/or regulation of eyeball size, and/or treating and/or preventing myopia and/or keratoconus disease if the ratio of the number of big eyes decreases relative to the total number of eyes in zebrafish or that of big eyes in control zebrafish that is not contacted with the test compound. […] Preferably, the ratio is less than 15%. More preferably, the ratio decreases to about 0% to about 30%, about 0% to about 25%, about 0% to about 20%, about 0% to about 15%, about 0% to about 10%, about 1% to about 30%, about 1% to about 25%, about 1% to about 20% or about 1% to about 15%.\nZebrafish are raised and maintained according to previously established protocols (Soules K A, Link B A. Morphogenesis of the anterior segment in the zebrafish eye. BMC Dev Biol 2005; 5:12). All experiments are performed on Tuebingen AB zebrafish raised at 28° C. on a 14-h light and 10-h dark cycle and maintained using standard methods. Embryos are staged according to morphological criteria (somite number) (Kimmel C B, Ballard W W, Kimmel S R, et al. Stages of embryonic development of the zebrafish. Dev Dyn 1995; 203(3):253-310) and timed in hours after fertilization. Embryos are generated by natural pair-wise mating, as described in the zebrafish handbook (Westerfield M. The Zebrafish Book; A Guide for the Laboratory Use of Zebrafish (Brachydanio rerio). University of Oregon Press, Eugene, 2nd edition 300P., 1993). For each mating, 4±5 pairs are set up and, on an average; 100±150 embryos per pair are generated. The zebrafish embryo is optically transparent, making it possible to detect functional and morphological changes in internal organs without having to kill or dissect the organism. Chorions are removed manually with Dumont Watchmaker's Forceps No. 5.\nMorpholinos are chemically modified antisense oligonucleotides that can be designed to hybridize to the translation-initiation or splicing acceptor/donor sites of specific mRNAs (Nasevicius A, Ekker S C. Effective targeted gene ‘knockdown’ in zebrafish. Nat Genet 2000; 26(2):216-20). A morpholino-antisense oligonucleotide (Gene Tools, Philomath, Oreg.) are designed and synthesized to target the 5′-untranslated and/or flanking regions, including the translation start codon of the respective genes. The MO sequence is designed as follows: zLum-MO, 5′-[…]-3′."}, "zLum-MO-injected fish [2]": {"system": "zLum-MO-injected fish", "experiment": "Eye morphometry and phenotype of zLum-MO-injected fish after muscarinic antagonist treatment (FIGS. 7-8)", "format": "in vivo, zebrafish", "conditions": "for diameter of the scleral coat / excessive axial elongation: zLum-MO-injected fish at 7 dpf, FIG. 7(C); for diameter of the scleral coat / excessive axial elongation / ratio of RPE/scleral coat (%): 0.5% atropine, 0.25% pirenzepine; for diameter of the scleral coat / excessive axial elongation / ratio of RPE/scleral coat (%) / ocular enlargement (phenotype): 0.01% methoctramine; for ratio of RPE/scleral coat (%): zLum-MO-injected fish, FIG. 7(D); for ocular enlargement (phenotype): zLum-MO-injected larvae at 7 dpf, 0.5% atropine for 2 days, 0.25% pirenzepine for 2 days, FIG. 8", "text": "FIGS. 7(A)-(D) depict a zebrafish drug screen assay. FIGS. 7(A) and (B) illustrate and define the outer margin of the retinal pigmented epithelium layer (RPE(red color)) and the diameter of the scleral coat (D(green color)) in zebrafish.\nas §1\nMorpholinos are chemically modified antisense oligonucleotides that can be designed to hybridize to the translation-initiation or splicing acceptor/donor sites of specific mRNAs (Nasevicius A, Ekker S C. Effective targeted gene ‘knockdown’ in zebrafish. Nat Genet 2000; 26(2):216-20). A morpholino-antisense oligonucleotide (Gene Tools, Philomath, Oreg.) are designed and synthesized to target the 5′-untranslated and/or flanking regions, including the translation start codon of the respective genes. The MO sequence is designed as follows: zLum-MO, 5′-[…]-3′. This oligonucleotide complemented the sequence from −8 through +17 with respect to the translation initiation codon. A random sequence MO (RS-MO) serves as a control for zLum-MO: 5′-[…]-3′. This RS-MO is obtained from Gene Tools as a standard control oligonucleotide with no target specificity (Yeh L K, Liu C Y, Kao W W, et al. Knockdown of zebrafish lumican gene (zlum) causes scleral thinning and increased size of scleral coats. J Biol Chem 2010; 285(36):28141-55).\n(§2) Morpholino is resuspended in sterile water to a concentration of 1 mmol/L and diluted to […] with sterile water. The morpholinos are injected at the single-cell stage in a volume of 0.0023 nL. Here, we identified the effects of morpholinos on protein levels are assayed with western blotting from injected embryos with GAPDH as a control."}, "[3]": {"system": "lumican, collagen 1a1, TGF-beta, MMP2 and TIMP2", "experiment": "Expression patterns in atropine-treated zLum knockdown morphant (FIG. 9)", "format": "in vivo, zebrafish", "description": "FIG. 9 depicts atropine rescues zLum knockdown morphant.\nas §2\nWe used several antibodies to evaluate the effects of lumican knockdown and all can be obtained from different commercial supplies. Rabbit anti-TGFβ2, Rabbit anti-MMP-2, Goat anti-TIMP-2, Goat anti-Col1a1 (L-19) and Goat anti-PDI are obtained from Santa Cruz. Mouse anti-GAPDH is obtained from Abnova."}, "zLum-MO-injected fish [4]": {"system": "zLum-MO-injected fish", "conditions": "in vivo zebrafish larvae assays; prior reference Yeh et al., J Biol Chem 2010; cited from earlier work"}}, "note": "Structures can show the parent of a compound that is named as a salt."}
{"compound": "CC(=O)Oc1ccccc1C(=O)O", "note": "[Aspirin]", "values": [{"measurement": "outcome of the screen of about 30 drugs", "setting": "[1]", "result": "effective candidate compounds"}, {"measurement": "% of scleral enlargement in experimental group", "setting": "[1]", "result": 9.6, "unit": "%"}]}
{"compound": "CN1[C@@H]2CC[C@H]1C[C@@H](OC(=O)C(CO)c1ccccc1)C2", "note": "(some centres unmarked) [Atropine]", "values": [{"measurement": "scleral coat enlargement", "setting": "zLum-MO-injected fish [2]; lumican knockdown fish, administration of atropine, FIGS. 7 to 9", "result": "could be inhibited"}, {"measurement": "diameter of the scleral coat", "setting": "zLum-MO-injected fish [2]", "result": "Significant decreases"}, {"measurement": "excessive axial elongation", "setting": "zLum-MO-injected fish [2]", "result": "significant decreases"}, {"measurement": "ratio of RPE/scleral coat (%)", "setting": "zLum-MO-injected fish [2]", "result": "attenuate the decreasing ratio"}, {"measurement": "ocular enlargement (phenotype)", "setting": "zLum-MO-injected fish [2]", "result": "significant decreases in ocular enlargement"}, {"measurement": "expression of MMP-2 and TIMP", "setting": "[3]; lumican knockdown fish, atropine treatment", "result": "returned to the normal level"}, {"measurement": "expressions of lumican, collagen 1a1, TGF-beta, MMP2 and TIMP2 in lumican morphant", "setting": "[3]; zLum knockdown morphant treated with atropine, FIG. 9", "result": "reverse the expressions"}, {"measurement": "ocular enlargement caused by morpholinos", "setting": "zLum-MO-injected fish [4]", "result": "effectively subdued the ocular enlargement"}]}
{"compound": "C[C@H](CS)C(=O)N1CCC[C@H]1C(=O)O", "note": "[Captopril]", "values": [{"measurement": "outcome of the screen of about 30 drugs", "setting": "[1]", "result": "effective candidate compounds"}]}
{"compound": "C[C@H]1c2cccc(O)c2C(=O)C2=C(O)[C@]3(O)C(=O)C(C(N)=O)=C(O)[C@@H](N(C)C)[C@@H]3[C@@H](O)[C@@H]21", "note": "[Doxycycline hyclate]", "values": [{"measurement": "% of scleral enlargement in experimental group", "setting": "[1]", "result": 6.8, "unit": "%"}]}
{"compound": "CC(C)[N+]1(C)[C@@H]2CC[C@H]1CC(OC(=O)C(CO)c1ccccc1)C2.[Br-]", "note": "(some centres unmarked) [Ipratropium bromide]", "values": [{"measurement": "Big eye rate(%)", "setting": "[1]; lumican knockdown zebrafish, big eye = RPE/scleral coat axial length < 0.7, Conc.: Atropine 0.50%, Tropicamide 1 mM, Ipratropium 50 mM, Oxybutynin 2 uM, Scopolamine 100 uM, Pirenzepine 0.25%, SB 431542 25 uM, Tamoxifen 20 uM, Doxycycline 100 ppm, Genistein 25 uM, Marimastat 50 uM, Taurine 0.2M, Minocycline 50 uM, n-acetylcysteine 10 uM, Aspirin 50 mg/L, Propofol 0.5 mM, SP600125 2.5 uM, Zileuton 1", "result": 26.0, "unit": "%"}]}
{"compound": "CNC(=O)[C@@H](NC(=O)[C@H](CC(C)C)[C@H](O)C(=O)NO)C(C)(C)C", "note": "[Marimastat]", "values": [{"measurement": "outcome of the screen of about 30 drugs", "setting": "[1]", "result": "effective candidate compounds"}, {"measurement": "% of scleral enlargement in experimental group", "setting": "[1]", "result": 2, "unit": "%"}]}
{"compound": "CN(C)c1ccc(O)c2c1C[C@H]1C[C@H]3[C@H](N(C)C)C(O)=C(C(N)=O)C(=O)[C@@]3(O)C(O)=C1C2=O", "note": "[Minocycline hydrochloride]", "values": [{"measurement": "% of scleral enlargement in experimental group", "setting": "[1]", "result": 4.7, "unit": "%"}]}
{"compound": "CN1CCN(CC(=O)N2c3ccccc3C(=O)Nc3cccnc32)CC1", "note": "[Pirenzepine dihydrochloride]", "values": [{"measurement": "diameter of the scleral coat", "setting": "zLum-MO-injected fish [2]", "result": "Significant decreases"}, {"measurement": "excessive axial elongation", "setting": "zLum-MO-injected fish [2]", "result": "significant decreases"}, {"measurement": "ratio of RPE/scleral coat (%)", "setting": "zLum-MO-injected fish [2]", "result": "attenuate the decreasing ratio"}, {"measurement": "ocular enlargement (phenotype)", "setting": "zLum-MO-injected fish [2]", "result": "decreases in ocular enlargement"}, {"measurement": "ocular enlargement caused by morpholinos", "setting": "zLum-MO-injected fish [4]", "result": "effectively subdued the ocular enlargement"}]}
{"compound": "CC(C)c1cccc(C(C)C)c1O", "note": "[Propofol, 2,6-diisopropylphenol]", "values": [{"measurement": "outcome of the screen of about 30 drugs", "setting": "[1]", "result": "effective candidate compounds"}, {"measurement": "% of scleral enlargement in experimental group", "setting": "[1]", "result": 12, "unit": "%"}]}
{"compound": "COc1ccccc1CNCCCCCCNCCCCCCCCNCCCCCCNCc1ccccc1OC", "note": "[methoctramine]", "values": [{"measurement": "diameter of the scleral coat", "setting": "zLum-MO-injected fish [2]", "result": "no obvious changes"}, {"measurement": "excessive axial elongation", "setting": "zLum-MO-injected fish [2]", "result": "no obvious changes"}, {"measurement": "ratio of RPE/scleral coat (%)", "setting": "zLum-MO-injected fish [2]", "result": "no obvious changes"}, {"measurement": "ocular enlargement (phenotype)", "setting": "zLum-MO-injected fish [2]", "result": "no obvious changes in the phenotypes"}]}
{"compound": "CC(=O)N[C@@H](CS)C(=O)O", "note": "[n-acetylcysteine]", "values": [{"measurement": "outcome of the screen of about 30 drugs", "setting": "[1]", "result": "effective candidate compounds"}, {"measurement": "% of scleral enlargement in experimental group", "setting": "[1]", "result": 11.7, "unit": "%"}]}
